The subject of one experiment is C. albicans CaCi-2. The experiment can be described thus: Primary screen and dose-response retest: CaCi-2 with 8 µg/mL fluconazole (Alamar Blue growth). To be noted: 37 °C, 48 hours, with test compound and 8 µg/mL (26 µM) fluconazole, average of at least three independent experiments in duplicate, inactive = negligible activity at concentrations below 26 µM; for IC50: Candida albicans, CACI2. In kind it is cell-based, Candida albicans. The method, then:
All of the compounds prepared above were evaluated for their ability to chemosensitize the C. albicans test strains CaCi-2 and CaCi-8 towards fluconazole. […] The DMSO/fluconazole combination served as an internal control.
Protocols for cellular assays
Primary screen and dose-response retest: CaCi-2 with 8 µg/mL fluconazole […]
Clear, flat-bottom, black, 384-well plates (Corning Catalog no. 3712BC; Lot no. […]
DMSO; Fluconazole (Sequoia Research Products Ltd) 2 mg/mL stock solution in PBS; […]
(AG Scientific Catalog no. DAL 1100; Lot no.151016SA); PBS without calcium and magnesium (Cellgro Catalog no. 21-040-CV)
(§1) Synthetic defined growth medium
(§2) RPMI 1640 medium, (powder without sodium bicarbonate; Invitrogen Catalog no. […]
no. 028KO760); Glucose 40% (w/v) in water (Sigma Catalog no. G-5400); MOPS buffer […]
1) Prepare 1× RPMI medium by dissolving 10.4 grams powdered medium in 800 […]
(§3) 2) Add 34.52 g MOPS. While stirring, adjust pH to 7.0 with 10 N NaOH.
(§4) 3) Add 10 mL uridine solution, 50 mL glucose solution, adjust final volume to 1000 […]
Test Strain: C. albicans CaCi-2
1) Inoculate 500 µL of strain from cryopreserved stock into a 250 mL shaker flask containing 30 mL growth medium. Shake at 30 °C overnight.
2) Read OD 600 of 1 mL fungal culture in a cuvette using a standard optical density reader (Eppendorf BioPhotometer Plus), with growth medium as a background […]
3) Dilute to desired volume of fungal inoculums according to the following formula:
(1/OD measured) × (desired final volume of inoculum) × 0.3 = volume of fungal culture (µL) to add to desired volume of growth medium. When added to media in wells, this yields a calculated starting OD of the fungal inoculum of 0.00015.
1) Add fluconazole stock solution to fungal inoculum to achieve a final concentration […]
2) Add Pen/Strep at 0.1 mL per 10 mL media (1% v/v).
3) Use a Thermo Combi nL to dispense 20 µL/well of assay media into all wells.
4) Pin 25 nL test compound from compound plates into assay plates using CyBi- […]
5) Dispense 20 µL/well of culture into the assay media in all wells.
6) Incubate plates in a humidified (90% humidity) Liconic incubator at 37 °C without […]
7) Dilute Alamar Blue Reagent 1:40 in Ca/Mg-free PBS.
8) To all plates, add 5 µL/well of the diluted Alamar to a final dilution factor of 1:200.
9) Incubate the plates for an additional 2 hours.
10) Read the relative fluorescence intensity (RFU) of wells on a standard plate reader as a measure of relative fungal growth. EnVision (Perkin Elmer) plate reader setup: Ex 544 nm, Em 590 nm, bandwidth 12 nm, top read. […]
(In general: The colour change of resazurin is a common sign of viable cells or microbes.)

The subject of another experiment is C. albicans CaCi-8. Put plainly: Secondary assay 1: CaCi-8 with 8 µg/mL fluconazole (Alamar Blue growth). It is filed as cell-based, Candida albicans. The conditions noted are these: for CaCi-8 IC50: 37 °C, 48 hours, with test compound and 8 µg/mL (26 µM) fluconazole, average of at least three independent experiments in duplicate, inactive = negligible activity at concentrations below 26 µM; for IC50: Candida albicans, CACI8, 48 h, read-out: CaCi-8 IC50. How it is done: All of the compounds prepared above were evaluated for their ability to chemosensitize the C. albicans test strains CaCi-2 and CaCi-8 towards fluconazole. […] The DMSO/fluconazole combination served as an internal control. […]
(1/OD measured) × (desired final volume of inoculum) × 0.3 = volume of fungal culture (µL) to add to desired volume of growth medium. When added to media in wells, this yields a calculated starting OD of the fungal inoculum of 0.00015. […]
3) Use a Thermo Combi nL to dispense 20 µL/well of assay media into all wells. […]
EnVision (Perkin Elmer) plate reader setup: Ex 544 nm, Em 590 nm, bandwidth 12 nm, top read.
Secondary assay 1: CaCi-8 with 8 µg/mL fluconazole […]
35808016); geldanamycin (AG Scientific Catalog no. […]
PBS w/o calcium and magnesium (Cellgro Catalog no. 21-040-CV)
as §1, §2
no. 028K0760); glucose 40% (w/v) in water (Sigma Catalog no. G-5400); MOPS buffer […]
1) Prepare 1× RPMI medium by dissolving 10.4 g powdered medium in 800 mL […]
as §3, §4
Test strain: C. albicans CaCi-8
1) Inoculate 500 µL of strain from cryopreserved stock into a 250 mL shaker flask containing 30 mL growth medium. Shake at 30 °C overnight (16 hours).
2) Read OD 600 of 1 mL of fungal culture in a cuvette using a standard optical density reader (Eppendorf BioPhotometer Plus), with growth medium as a […]
3) Dilute to a desired volume of fungal inoculum according to following formula: […]
1) Add fluconazole stock solution to fungal inoculum to achieve 8 µg/mL.
2) Add Pen/Strep to media to 1% concentration.
4) Dispense geldanamycin in positive control wells using Thermo Combi nL for a final concentration of 3 µM.
5) Then, pin 100 nL of test compound from compound plates into assay plates using a CyBi-Well pin tool.
6) Dispense 20 µL/well of culture into the assay media in all wells.
7) Incubate the plates in a humidified (90% humidity) Liconic incubator at 37 °C without agitation for 48 hours.
8) Dilute Alamar Blue 1:40 in Ca/Mg-free PBS.
9) To all plates, add 5 µL/well of the diluted Alamar Blue to plates to a final dilution […]
10) Incubate the plates for 2 hours. […]

SMILES strings stand for the structures.

Results on 30 molecules are retold here after publication PMC3740683, “ML212: A small-molecule probe for investigating fluconazole resistance mechanisms in Candida albicans” (Beilstein Journal of Organic Chemistry, 2013).

One may read the IC50 as the concentration that gives 50% inhibition.

Turning to `COC(=O)Cn1nc(C(C)(C)C)c2ccccc21` [Compound 23], the “CaCi-2 IC50” value with C. albicans CaCi-2 is “inactive”. For the same molecule, the “CaCi-8 IC50” value with C. albicans CaCi-8 was “inactive”.

On to `COC(=O)Cn1nc(-c2ccc(OC)cc2)c2ccccc21` [Compound 31], for which the results for the IC50 in the experiment with C. albicans CaCi-2 and in the experiment on C. albicans CaCi-8 were 4.2 ± 1.7 µM and 14.1 ± 6.4 µM, respectively.

For `COC(=O)Cn1nc(-c2cnco2)c2ccccc21` [Compound 28], in the experiment with C. albicans CaCi-2, the “CaCi-2 IC50” value was “inactive”. Also, in the experiment on C. albicans CaCi-8, the “CaCi-8 IC50” value is “inactive”.

Turning to `COC(=O)Cn1nc(-c2ccccc2)c2cc(C)ccc21` [Compound 11], the values for the IC50 with C. albicans CaCi-2 and in the experiment on C. albicans CaCi-8 were 5.2 ± 2.2 µM and 8.2 ± 3.2 µM, respectively.

Regarding `COC(=O)Cn1nc(-c2ccc(F)cc2)c2ccccc21` [Compound 32], the IC50 amounted to 8.3 ± 2.8 µM with C. albicans CaCi-2 and 12.3 ± 3.9 µM in the experiment on C. albicans CaCi-8.

For `COC(=O)Cn1nc(-c2ccccc2)c2cccc(C(F)(F)F)c21` [Compound 19], the “CaCi-2 IC50” value with C. albicans CaCi-2 is “inactive”. The “CaCi-8 IC50” value in the experiment with C. albicans CaCi-8 is “inactive”.

In the case of `COC(=O)Cn1nc(-c2cscn2)c2ccccc21` [Compound 29], the IC50 in the experiment on C. albicans CaCi-2 was 12.9 ± 1.7 µM. For the same molecule, the “CaCi-8 IC50” value in the experiment with C. albicans CaCi-8 was “inactive”.

Consider `COC(=O)Cn1nc(-c2cncnc2)c2ccccc21` [Compound 27], for which the “CaCi-2 IC50” value in the experiment on C. albicans CaCi-2 is “inactive”. For the same molecule, the IC50 in the experiment on C. albicans CaCi-8 came out at 21.1 ± 3.3 µM.

On to `COC(=O)Cn1nc(-c2ccccc2)c2cc(Cl)ccc21` [Compound 14], for which the “CaCi-2 IC50” value with C. albicans CaCi-2 is “inactive”. Also, the “CaCi-8 IC50” value in the experiment on C. albicans CaCi-8 was “inactive”.

Turning to `COC(=O)Cn1nc(C2CCCCC2)c2ccccc21` [Compound 25], the figures for the IC50 with C. albicans CaCi-2 and with C. albicans CaCi-8 were 2.3 ± 0.3 µM and 6 ± 1.7 µM, respectively.

Consider `COC(=O)Cn1nc(-c2ccc(C)cc2)c2ccccc21` [Compound 30], for which the half-maximal inhibitory concentration (IC50) with C. albicans CaCi-2 is 4.8 ± 2.5 µM; with C. albicans CaCi-8, 19.5 ± 14.2 µM.

For the molecule `COC(=O)Cn1nc(-c2ccccc2)c2cc(OC)ccc21` [Compound 12], the IC50 in the experiment with C. albicans CaCi-2 is 14.9 ± 5.7 µM; in the experiment on C. albicans CaCi-8, 22.1 ± 6.2 µM.

Regarding `COC(=O)Cn1nc(-c2ccccc2)c2cc(F)ccc21` [Compound 13], the IC50 with C. albicans CaCi-2 was determined as 11.2 ± 7.2 µM. The “CaCi-8 IC50” value in the experiment on C. albicans CaCi-8 was “inactive”.

For the molecule `COC(=O)Cn1nc(-c2cccc(N(C)C)c2)c2ccccc21` [Compound 37], the IC50 worked out at 0.8 ± 0.1 µM with C. albicans CaCi-2 and 2 ± 0.2 µM in the experiment on C. albicans CaCi-8.

As for `COC(=O)Cn1nc(C2CC2)c2ccccc21` [Compound 24], the “CaCi-2 IC50” value in the experiment with C. albicans CaCi-2 is “inactive”. For the same molecule, the “CaCi-8 IC50” value in the experiment with C. albicans CaCi-8 was “inactive”.

Consider `COC(=O)Cn1nc(-c2cccc(F)c2)c2ccccc21` [Compound 38], for which the IC50 turned out to be 1.7 ± 0.4 µM in the experiment on C. albicans CaCi-2 and 4.2 ± 4.1 µM in the experiment on C. albicans CaCi-8.

With `COC(=O)Cn1nc(-c2ccccc2)c2cccnc21` [Compound 20], the “CaCi-2 IC50” value in the experiment with C. albicans CaCi-2 was “inactive”. For the same molecule, the “CaCi-8 IC50” value in the experiment with C. albicans CaCi-8 is “inactive”.

For `COC(=O)Cn1nc(-c2cccc(C)c2)c2ccccc21` [Compound 35], the figures for the IC50 in the experiment with C. albicans CaCi-2 and in the experiment with C. albicans CaCi-8 were 1.1 ± 0.6 µM and 1.9 ± 0.9 µM, respectively.

For the molecule `COC(=O)Cn1nc(-c2cccnc2)c2ccccc21` [Compound 26], the “CaCi-2 IC50” value with C. albicans CaCi-2 was “inactive”. Moreover, the “CaCi-8 IC50” value in the experiment with C. albicans CaCi-8 is “inactive”.

Consider `COC(=O)Cn1nc(-c2ccccc2)c2ccc(OC)cc21` [Compound 16], for which the results for the IC50 in the experiment on C. albicans CaCi-2 and in the experiment on C. albicans CaCi-8 were 9.5 ± 2.5 µM and 12.4 ± 0.5 µM, respectively.

As for `COC(=O)Cn1nc(-c2ccccc2)c2ccc(C)cc21` [Compound 15], in the experiment on C. albicans CaCi-2, the IC50 stood at 5.9 ± 3.1 µM. For the same molecule, the “CaCi-8 IC50” value in the experiment with C. albicans CaCi-8 is “inactive”.

For the molecule `COC(=O)Cn1nc(-c2ccccc2)c2ccc(Cl)cc21` [Compound 17], the IC50 stood at 4 ± 1.3 µM in the experiment with C. albicans CaCi-2 and 8.4 ± 0.5 µM in the experiment with C. albicans CaCi-8.

With `COC(=O)Cn1nc(-c2cc(OC)cc(OC)c2)c2ccccc21` [Compound 41], the “CaCi-2 IC50” value with C. albicans CaCi-2 was “inactive”. For the same molecule, in the experiment on C. albicans CaCi-8, the “CaCi-8 IC50” value is “inactive”.

In the case of `CCc1nn(CC(=O)OC)c2ccccc12` [Compound 22], the “CaCi-2 IC50” value in the experiment with C. albicans CaCi-2 was “inactive”. Further, in the experiment on C. albicans CaCi-8, the “CaCi-8 IC50” value is “inactive”.

Take `COC(=O)Cn1nc(-c2ccccc2)c2ccc(C(F)(F)F)cc21` [Compound 18]: the “CaCi-2 IC50” value in the experiment on C. albicans CaCi-2 is “inactive”. Moreover, the “CaCi-8 IC50” value with C. albicans CaCi-8 is “inactive”.

For `COC(=O)Cn1nc(-c2ccccc2OC)c2ccccc21` [Compound 40], the IC50 in the experiment with C. albicans CaCi-2 was found to be 9.3 ± 3.6 µM; in the experiment on C. albicans CaCi-8 it was 11.4 ± 1.7 µM.

For `COC(=O)Cn1nc(-c2ccccc2C)c2ccccc21` [Compound 39], the IC50 in the experiment with C. albicans CaCi-2 amounted to 5.3 ± 0.5 µM; with C. albicans CaCi-8 it was 7.8 ± 2.6 µM.

As for `COC(=O)Cn1nc(-c2ccc(C(F)(F)F)cc2)c2ccccc21` [Compound 33], in the experiment on C. albicans CaCi-2, the “CaCi-2 IC50” value is “inactive” and the IC50 is above 26 µM. The “CaCi-8 IC50” value in the experiment on C. albicans CaCi-8 is “inactive”.

With `COC(=O)Cn1ncc2ccccc21` [Compound 21], the “CaCi-2 IC50” value with C. albicans CaCi-2 is “inactive”. Also, the “CaCi-8 IC50” value in the experiment with C. albicans CaCi-8 is “inactive”.

On to `COC(=O)Cn1nc(-c2ccc(C#N)cc2)c2ccccc21` [Compound 34], for which, in the experiment on C. albicans CaCi-2, the “CaCi-2 IC50” value is “inactive” and the 50% inhibitory concentration (IC50) is above 26 µM. Also, the IC50 in the experiment on C. albicans CaCi-8 was 20.5 ± 0.3 µM.
